Laboratory results published in ChEMBL document CHEMBL3301361, “Experimental in vitro DMPK and physicochemical data on a set of publicly disclosed compounds”.
Values after ≈ are worked out from the molar mass of the structure shown.

Legend:
physchem [1] = test: physchem
physchem [2] = test: physchem; remark: listed apart in the source
in vitro [3] = conditions: SD, HW or BN, rat, plasma
in vitro [4] = conditions: mouse, plasma
in vitro [5] = conditions: Dunkin Hartley, guinea pig, plasma
in vitro [6] = conditions: human, plasma
in vitro [7] = conditions: Beagle, dog, plasma
in vitro [8] = conditions: human, hepatocytes
physchem [9] = conditions: octan-1-ol/water
physchem [10] = test: physchem; remark: listed apart in the source
in vitro [11] = conditions: human
in vitro [12] = conditions: hepatocytes
physchem [13] = conditions: pH 7.4 buffer

Row | Structure (SMILES) | fraction unbound at 5 h (in vitro [3]) | fraction unbound at 5 h (in vitro [4]) | fraction unbound at 5 h (in vitro [5]) | fraction unbound at 5 h (in vitro [7]) | fraction unbound at 5 h (in vitro [6]; PPB) | logD (physchem [9]; pH 7.4, LogD7.4) | further results
1 | N=C(N)SCCc1cccc(CCSC(=N)N)c1 | – | – | – | – | – | – | pKa (physchem [1]): 11; pKa (physchem [2]): 9.1
2 | NC(=O)[C@@H](CCC(F)(F)F)N(Cc1ccc(-c2ncon2)cc1F)S(=O)(=O)c1ccc(Cl)cc1 | 0.0119 | 0.0149 | 0.0081 | – | – | – | –
3 | Cc1nn(-c2ccccc2)c(N)c1-c1ccccc1 | 0.0457 | – | 0.0328 | 0.0313 | – | – | fraction unbound at 5 h (in vitro [6]): 0.013; hepatocyte CLint (in vitro [8]): 32.4 µL/min/1e6 cells
4 | C#CCn1c(=O)c2c(-c3cncn3C)n(Cc3ccnc4ccc(Cl)cc34)nc2n(CC2CC2)c1=O | – | – | – | – | – | – | pKa (physchem [2]): 4.44
5 | COc1ccc(CC(=O)NCc2ccccc2-c2ccccc2C(=O)NCCc2cccnc2)cc1 | 0.0836 | 0.0872 | 0.17 | 0.0705 | 0.0066 | – | –
6 | CCS(=O)(=O)c1ccc(-c2cc(C(F)(F)F)ccc2OCC(=O)O)c(C)c1 | 0.0705 | 0.208 | 0.0928 | 0.03 | 0.0428 | -0.45 | pKa (physchem [10]): 3.2
7 | N#Cc1cc(F)c(Cl)cc1O[C@H](CCN)c1ccccc1 | – | – | 0.101 | 0.0457 | 0.289 | 0.77 | pKa (physchem [1]): 9.6; microsomal CLint (in vitro [11]; liver microsomes): < 3 µL/min/mg
8 | O=c1[nH]c2c(O)ccc([C@@H](O)CNCCCSCCOCCc3cccc4ccccc34)c2s1 | 0.0082 | – | 0.0088 | – | 0.0067 | 3.12 | microsomal CLint (in vitro [11]; liver microsomes): 70 µL/min/mg; hepatocyte CLint (in vitro [12]): 85 µL/min/1e6 cells; hepatocyte CLint (in vitro [8]): 14.8 µL/min/1e6 cells
9 | Cc1nn(-c2ccc(F)cc2)c(NS(=O)(=O)c2ccc(C(F)(F)F)cc2)c1C(=O)N[C@@H](C)C(C)(C)C | 0.0293 | – | 0.0736 | – | 0.0136 | 2.35 | microsomal CLint (in vitro [11]; microsomes): 10 µL/min/mg; hepatocyte CLint (in vitro [12]): 5.01 µL/min/1e6 cells; pKa (physchem [10]): 3.4
10 | Cc1ccc(S(=O)(=O)Nc2c(C(=O)N[C@@H](C)C(C)(C)C)c(C)nn2C(C)C)cc1 | 0.0418 | – | 0.271 | 0.0736 | 0.0457 | – | hepatocyte CLint (in vitro [12]): 10 µL/min/1e6 cells; hepatocyte CLint (in vitro [8]): < 3 µL/min/1e6 cells; pKa (physchem [10]): 4.5
11 | COc1cccc2c1c(NS(=O)(=O)c1ccc(Cl)s1)nn2Cc1cccc(CNC(=O)C(C)(C)O)c1 | 0.0082 | – | 0.035 | – | 0.0133 | 2.09 | solubility thermodynamic (physchem [13]): 81.3 µM (≈ 44.6 µg/mL); microsomal CLint (in vitro [11]; liver microsomes): 50 µL/min/mg; hepatocyte CLint (in vitro [12]): 25 µL/min/1e6 cells; hepatocyte CLint (in vitro [8]): 40 µL/min/1e6 cells
12 | CNC(=O)CCCN(C)C(=O)c1ccc2c(c1)c1c(n2C)CC[C@@H](C2CCOCC2)C1 | 0.0146 | – | 0.329 | 0.258 | – | – | fraction unbound at 5 h (in vitro [6]): 0.0366
13 | O=C(N[C@@H]1COc2cccc(-c3ccc(CO)nc3)c2C1)c1ccc(OCC(F)(F)F)nc1 | 0.0752 | – | 0.11 | 0.0477 | 0.0374 | – | –
14 | c1ccc([C@H]([C@@H](c2ccccc2)N2CCCCC2)N2CCCCC2)cc1 | 0.365 | 0.253 | 0.5 | 0.163 | 0.0606 | – | microsomal CLint (in vitro [11]; liver microsomes): 13.8 µL/min/mg; hepatocyte CLint (in vitro [12]): 12 µL/min/1e6 cells
15 | c1ccc([C@@H]([C@H](c2ccccc2)N2CCCC2)N2CCCC2)cc1 | 0.329 | 0.339 | 0.489 | – | 0.17 | – | –
16 | c1ccc([C@H]([C@@H](c2ccccc2)N2CCCC2)N2CCCC2)cc1 | 0.339 | 0.271 | 0.489 | – | 0.17 | – | –
17 | CC#Cc1cncc(-c2ccc3c(c2)C2(N=C(C)C(N)=N2)[C@]2(CC[C@H](OC)CC2)C3)c1 (some centres not stated) | – | 0.0041 | 0.072 | – | 0.0801 | – | –
18 | Cc1ccccc1C[C@@H](C(=O)O)N1CCC(CN2CCC(Oc3ccc(Cl)c(Cl)c3)CC2)CC1 | – | – | – | – | – | – | pKa (physchem [1]): 9.2; solubility thermodynamic (physchem [13]): 12.3 µM (≈ 6.22 µg/mL); microsomal CLint (in vitro [11]; liver microsomes): < 3 µL/min/mg; pKa (physchem [2]): 7.55
19 | O=C(O)C(c1ccccc1)N1CCC(N2CCC(Oc3ccc(Cl)c(Cl)c3)CC2)CC1 (configuration not stated) | – | – | – | – | – | 2.23 | pKa (physchem [1]): 9.1; microsomal CLint (in vitro [11]; liver microsomes): 6 µL/min/mg; pKa (physchem [2]): 6.5
20 | O=C(O)[C@@H](Cc1ccccc1)N1CCC(CN2CCC(Oc3ccc(Cl)c(Cl)c3)CC2)CC1 | – | – | – | – | 0.314 | – | pKa (physchem [1]): 9.3; microsomal CLint (in vitro [11]; liver microsomes): < 3 µL/min/mg; pKa (physchem [2]): 7
21 | N#Cc1ccc2ccc(=O)n(CCN3CC[C@@H](NCc4ccc5c(n4)NC(=O)CO5)[C@@H](F)C3)c2c1 | 0.285 | 0.465 | 0.715 | 0.591 | 0.204 | 0.66 | hepatocyte CLint (in vitro [12]): 16.6 µL/min/1e6 cells
22 | O=C(c1c[nH]c(=O)c2ccccc12)N1CCC(N2CCC(Oc3ccc(Cl)c(Cl)c3)CC2)CC1 | – | – | 0.17 | 0.0488 | 0.089 | 3.51 | –

Row | Structure (SMILES) | fraction unbound at 5 h (in vitro [3]) | fraction unbound at 5 h (in vitro [4]) | fraction unbound at 5 h (in vitro [5]) | fraction unbound at 5 h (in vitro [7]) | fraction unbound at 5 h (in vitro [6]; PPB) | logD (physchem [9]; pH 7.4, LogD7.4) | further results
23 | CC1=NC(c2cccc(-c3cncc(Cl)c3)c2)(C2CC2)N=C1N (configuration not stated) | – | – | – | – | – | – | pKa (physchem [1]): 6.04; pKa (physchem [2]): 2.28
24 | CCCNC(c1cccnc1)P(=O)(c1ccccc1)c1ccccc1 (configuration not stated) | 0.173 | – | 0.19 | 0.197 | – | – | –
25 | CCCN(c1cccnc1)P(=O)(c1ccccc1)c1ccccc1 | 0.151 | 0.124 | 0.309 | 0.176 | – | – | fraction unbound at 5 h (in vitro [6]): 0.0205
26 | O=P(c1ccccc1)(c1ccccc1)N(Cc1ccccn1)c1cccnc1 | 0.145 | 0.17 | 0.299 | 0.208 | – | – | fraction unbound at 5 h (in vitro [6]): 0.0234
27 | O=P(c1ccccc1)(c1ccccc1)N(Cc1ccccn1)Cc1ccccn1 | – | 0.0968 | 0.569 | – | – | – | fraction unbound at 5 h (in vitro [6]): 0.0049
28 | Cc1nc2ccc(Oc3ccc(F)cc3)cc2c(=O)n1C[C@H]1CCCN(C(C)C)C1 | – | – | – | – | – | 2.4 | pKa (physchem [2]): 2.65
29 | COc1ccc2c(C)cc(N[C@H]3CC[C@H](NCc4cn(C)c5cccnc45)C3)nc2c1 | – | 0.0647 | 0.0854 | – | 0.0262 | – | –
30 | O=C(CC1CCN(Cc2ccn(-c3ccc(C(F)(F)F)cn3)c2)CC1)NC(c1ccc(F)cc1)c1ccc(F)cc1 | 0.0033 | – | 0.013 | 0.004 | 0.0053 | – | –
31 | CCN(Cc1cc(C(F)(F)F)ccc1-c1cc(CC(=O)O)ccc1OC)C(=O)NCc1ccccc1 [AM-211] | 0.0191 | – | 0.0256 | 0.0039 | 0.0171 | – | solubility thermodynamic (physchem [13]): 1380 µM (≈ 691 µg/mL); microsomal CLint (in vitro [11]; microsomes): 67.6 µL/min/mg; hepatocyte CLint (in vitro [12]): 18.2 µL/min/1e6 cells
32 | CN(C)N(C)C(=O)[C@@]1(Cc2ccccc2)CCCN(C(=O)[C@@H](Cc2c[nH]c3ccccc23)NC(=O)C(C)(C)N)C1 [ANAMORELIN] | 0.16 | – | 0.22 | 0.0633 | – | 2.1 | hepatocyte CLint (in vitro [8]): 8.91 µL/min/1e6 cells
33 | COc1ccc(CCN2CCC(Nc3nc4ccccc4n3Cc3ccc(F)cc3)CC2)cc1 [ASTEMIZOLE] | – | – | – | – | 0.0262 | – | pKa (physchem [1]): 9.62; solubility thermodynamic (physchem [13]): 5.6 µM (≈ 2.57 µg/mL); microsomal CLint (in vitro [11]; liver microsomes): 66 µL/min/mg; pKa (physchem [2]): 6.33
34 | CN(C)c1nc(Cc2ccc(NC(=O)c3ccc(C(F)(F)F)cc3)cc2)nc(N(C)C)c1CC(=O)O [BI-671800] | 0.0025 | – | 0.0437 | – | 0.0039 | 1.46 | solubility thermodynamic (physchem [13]): 28.8 µM (≈ 14.4 µg/mL); microsomal CLint (in vitro [11]; liver microsomes): < 3 µL/min/mg; hepatocyte CLint (in vitro [12]): 18.6 µL/min/1e6 cells; hepatocyte CLint (in vitro [8]): 4.47 µL/min/1e6 cells
35 | NC(=O)N1c2ccccc2C=Cc2ccccc21 [CARBAMAZEPINE] | 0.266 | – | 0.24 | 0.271 | 0.294 | 1.65 | solubility thermodynamic (physchem [13]): 776 µM (≈ 183 µg/mL); microsomal CLint (in vitro [11]; microsomes): 7 µL/min/mg; hepatocyte CLint (in vitro [12]): 19.9 µL/min/1e6 cells; hepatocyte CLint (in vitro [8]): 5.25 µL/min/1e6 cells
36 | CN(C)CCC(c1ccc(Cl)cc1)c1ccccn1 (configuration not stated) [CHLORPHENIRAMINE] | – | – | – | – | – | – | pKa (physchem [2]): 5.86
37 | OC(Cn1cncn1)(Cn1cncn1)c1ccc(F)cc1F [FLUCONAZOLE] | – | – | – | – | – | – | pKa (physchem [1]): 2.72; fraction unbound at 5 h (in vitro [6]): 0.858; pKa (physchem [2]): 2.18
38 | C[C@H](CN(C(=O)c1ccc(C#N)cc1)c1ccccn1)N1CCN(c2cccc3c2OCCO3)CC1 [LECOZOTAN] | 0.179 | 0.139 | 0.139 | – | 0.009 | – | –
39 | Cc1nnc(C(C)C)n1[C@H]1C[C@H]2CC[C@@H](C1)N2CC[C@H](NC(=O)C1CCC(F)(F)CC1)c1ccccc1 [MARAVIROC] | – | – | – | – | – | – | pKa (physchem [1]): 9.66; pKa (physchem [2]): 2.4
40 | Cc1nccn1CC1CCc2c(c3ccccc3n2C)C1=O (configuration not stated) [ONDANSETRON] | – | – | 0.635 | – | – | 1.67 | pKa (physchem [1]): 7.73; microsomal CLint (in vitro [11]; liver microsomes): 6.46 µL/min/mg; hepatocyte CLint (in vitro [8]): < 3 µL/min/1e6 cells
41 | OCc1cc(C(O)CNCCCCCCOCCCCc2ccccc2)ccc1O (configuration not stated) [SALMETEROL] | 0.0736 | – | 0.0477 | 0.0179 | 0.0661 | – | microsomal CLint (in vitro [11]; liver microsomes): 58 µL/min/mg; hepatocyte CLint (in vitro [12]): 85 µL/min/1e6 cells
42 | C[N+]1(C)[C@@H]2C[C@@H](OC(=O)C(O)(c3cccs3)c3cccs3)C[C@H]1[C@@H]1O[C@@H]12 [TIOTROPIUM] | – | – | 0.613 | 0.807 | – | – | logD (physchem [9]; pH 7.4): -0.25
43 | COc1ccc(CCO[C@@H]2CCCC[C@H]2N2CC[C@@H](O)C2)cc1OC [VERNAKALANT] | 0.776 | – | 0.309 | 0.772 | 0.629 | – | hepatocyte CLint (in vitro [8]): 6.46 µL/min/1e6 cells
